Results taken from patent US8394788B2, “Phenylsulfoxyoxazole compound inhibitors of urea transporters” (The Regents of the University of California, priority 2006, dated 2013).

How the values were obtained:
rat UT-A1 = molecular target: T1, rat UT-A1 (Rattus norvegicus, UniProt Q62668); assay: UT-A1-facilitated urea flux across MDCK-UT-A1 cell layers; format: cell-based; conditions: forskolin 10 μM; phloretin 0.7 mM
T1 sequence (Q62668 1-929): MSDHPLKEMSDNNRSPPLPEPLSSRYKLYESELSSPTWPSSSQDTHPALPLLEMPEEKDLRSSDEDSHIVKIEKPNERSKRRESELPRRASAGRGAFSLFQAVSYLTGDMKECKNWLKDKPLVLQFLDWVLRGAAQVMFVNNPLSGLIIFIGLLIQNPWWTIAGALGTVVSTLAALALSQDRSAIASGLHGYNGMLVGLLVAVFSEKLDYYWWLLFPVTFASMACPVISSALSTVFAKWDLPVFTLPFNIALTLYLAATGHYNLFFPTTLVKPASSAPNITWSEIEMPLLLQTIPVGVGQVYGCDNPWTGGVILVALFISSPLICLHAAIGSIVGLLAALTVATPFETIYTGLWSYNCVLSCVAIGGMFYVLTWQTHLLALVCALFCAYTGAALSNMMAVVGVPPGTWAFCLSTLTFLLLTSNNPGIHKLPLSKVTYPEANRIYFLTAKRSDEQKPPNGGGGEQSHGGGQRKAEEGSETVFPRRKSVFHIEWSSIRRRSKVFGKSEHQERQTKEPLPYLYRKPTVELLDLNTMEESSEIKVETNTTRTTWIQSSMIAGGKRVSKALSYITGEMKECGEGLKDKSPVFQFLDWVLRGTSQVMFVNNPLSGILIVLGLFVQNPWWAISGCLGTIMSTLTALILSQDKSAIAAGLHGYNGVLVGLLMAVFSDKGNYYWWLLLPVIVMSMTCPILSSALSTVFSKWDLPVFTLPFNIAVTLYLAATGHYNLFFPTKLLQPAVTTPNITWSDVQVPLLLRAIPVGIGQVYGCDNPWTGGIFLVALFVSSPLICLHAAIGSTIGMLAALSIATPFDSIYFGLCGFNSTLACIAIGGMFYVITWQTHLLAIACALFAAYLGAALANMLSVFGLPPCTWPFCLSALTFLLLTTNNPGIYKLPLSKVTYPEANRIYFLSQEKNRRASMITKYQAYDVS
Experimental: Concentration-inhibition studies were performed to study the effect of the active mouse UT-B inhibitors on urea transport by UT-A. The amino acid sequences of UT-B and UT-A urea transporter isoforms share significant similarity. The cells used in these studies were MDCK cells that expressed rat UT-A1. MDCK-UT-A1-expressing cells were grown on collagen-coated porous filters until they were electrically tight, at which point 15 mM urea was introduced into buffer bathing the basolateral cell surface. […]
UT-A1-facilitated urea flux in the basolateral-to-apical direction across unstimulated and forskolin-stimulated MDCK-UT-A1 cell layers was measured in response to a 15-mM urea gradient. […] Five μL samples of apical fluid were collected at specified times during incubation at 37° C., and urea concentration was determined using a commercial kit based on chromogenic urea complexation at 520-nm wavelength (Quantichrom™ Urea Assay Kit, BioAssay Systems, Hayward, Calif.). […] Aforsk, and Aphlor were averaged absorbance values (at 520 nm) for cultures treated with forskolin and forskolin+phloretin, respectively, and Atest were values from cultures treated with forskolin+test compound.

RBCs from wild-type mice = assay: Osmotic water permeability, RBCs from wild-type mice (stopped-flow); format: cell-based, mouse
Experimental: RBC urea and water permeabilities were assayed by stopped-flow light scattering using a Hi-Tech Sf-51 instrument (Wiltshire, UK). For measurement of urea permeability, dilutions of whole blood (human or mouse; see Example 1) in PBS (hematocrit: approximately 0.5%) were incubated with test compounds for 5 min and then subjected to a 250-mM inwardly directed gradient of urea. After an initial osmotic shrinking phase, the kinetics of increasing cell volume caused by urea influx were measured as the time-course of 90° scattered light intensity at 530 nm, with increasing cell volume resulting in reduced scattered light intensity. As a positive control, 0.7 mM phloretin was added to the RBC suspension prior to stopped-flow experiments. Measurements of water permeability were carried out similarly, with sucrose (cell-impermeant) used instead of urea to establish a 250-mM osmotic gradient. As a positive control, HgCl2 (0.3 mM) was added to the RBC suspension prior to stopped-flow measurements. Osmotic water permeability coefficients (Pf) were computed from light scattering data as described (van Hoek et al., J Biol. Chem. 267:18267-69 (1992)).
This example describes chemical knock-out of UT-B by UT-B inhibitors in RBCs and the effect on UT-B-facilitated water transport. […] Osmotic water permeability was measured by stopped-flow light scattering in RBCs from wild-type and AQP1-null mice as shown in FIG. 8A. […] AQP1-null RBCs had greater than 5-fold reduced Pf compared to wild-type RBCs.

UT = conditions: cited from earlier work

## O=C(CCc1ccc(O)cc1)c1c(O)cc(O)cc1O [phloretin, reference compound]
Rat UT-A1
  effect on UT-A1-facilitated urea transport: inhibited
RBCs from wild-type mice; 0.7 mM, wild-type mouse RBCs
  reduction in Pf: small but significant reduction
RBCs from wild-type mice; 10° C., 250-mM sucrose gradient
  effect on water transport in RBCs from wild-type mice: little effect
UT
  concentration exhibiting activity as UT inhibitor: > 0.5 mM
